# In US9388126B2, “Sigma receptor ligands and methods of modulating cellular protein homeostasis using same” (Drexel University, priority 2012, dated 2016):
# Key:
# Format in all cases: cell-based, human
# MDA-MB-468 cells = test: Cell death by trypan blue exclusion; conditions: 10 μM with bortezomib 1, 10, 100 nM, 20 hours
# Experimental: Trypan blue exclusion and propidium iodide staining were used to quantify general cell death and the presence of apoptotic cell death was confirmed by immunoblot. The percentage of dead cells in a given population was determined by quantifying the number of trypan blue positive (dead) cells and dividing by the total number of trypan blue positive and negative cells.
# [1] = tested on: MDA-MB-231 breast adenocarcinoma cells; test: Alamar blue proliferation assay with bortezomib; conditions: ~70 hours
# Experimental: FIG. 61, comprising FIGS. 61A-61B, is a set of graphs illustrating the finding that the novel Sigma1 ligand JMS-51-58 potentiated proteasome inhibitor mediated inhibition of tumor cell proliferation. In vitro cell proliferation was quantified by Alamar blue assay. The anti-proliferative effects of four drug concentrations of novel Sigma1 small molecule ligand JMS-51-58, were quantified after ˜70 hours of treatment of MDA-MB-231 breast adenocarcinoma cell cultures. […] Note the shift to the left of the dose-response curve (broken line). Data are representative of an experiment performed in triplicate.
# [2] = tested on: MDA-MB-468 (GFP-LC3), MDA-MB-468 and T47D breast adenocarcinoma cells; test: Autophagy markers (GFP-LC3II, GFP-LC3 punctae, endogenous LC3II); conditions: 10 μM, ~16 hours
# Experimental: FIG. 56A is an immunoblot illustrating MDA-MB-468 breast adenocarcinoma cells stably transfected with GFP-LC3 (green fluorescent protein tagged light chain 3, an autophagy marker) treated for ˜16 hours with 10 μM IPAG or 10 μM 1-3 JMS-51-58. The appearance of GFP-LC3II was an indication of autophagosome formation. FIG. 56B is an image illustrating formation of autophagosomes (GFP-LC3 punctae) in MDA468 (GFP-LC3) treated with 10 μM JMS-51-58 as in FIG. 56A. The arrow points to an example of GFP-LC3-positive autophagosomes. The white bar at the bottom of the image indicates 100 μm. FIG. 56C is an image of an immunoblot illustrating the appearance of endogenous LC3II, a marker of autophagosome formation, in MDA-MB-468 breast adenocarcinoma cells treated for 16 hours with 10 μM of JMS-51-58. FIG. 56D is an image of an immunoblot illustrating the appearance of endogenous LC3II, a marker of autophagosome formation, in T47D breast adenocarcinoma cells treated for 16 hours with 10 μM JMS-51-58.
# MDA-MB-231 and PC3 cells = test: In vitro cell adhesion by Alamar blue assay; conditions: 16 hours in the presence of drug
# Experimental: In vitro cell adhesion was quantified by Alamar blue assay. MDA-MB-231 and PC3 cells were detached with 0.25% trypsin+2 mM EDTA and reseeded onto 96 well plates. At the time of cell seeding, IPAG (Sigma1 putative antagonist) was added at the indicated doses to wells containing adenocarcinoma cells. The suspended cells were allowed to sediment and adhere for 16 hours in the presence of drug. Subsequently, the culture medium was removed by aspiration, each well washed once with 0.2 ml PBS (without calcium and magnesium), and Alamar blue assay was performed to quantify the number of live cells adhered to the surface of each well. FIG. 63A is a graph illustrating cell adherence in MDA-MB-231 breast adenocarcinoma cells. FIG. 63B is a graph illustrating cell adherence in PC3 prostate adenocarcinoma cells. The same procedure was performed using the indicated concentrations of JMS-51-58. FIG. 63C is a graph illustrating cell adherence in MDA-MB-231 breast adenocarcinoma cells. FIG. 63D is a graph illustrating cell adherence in PC3 prostate adenocarcinoma cells. Standard deviation bars are shown.
# [3] = tested on: MDA-MB-468 and T47D breast adenocarcinoma cells; test: ER stress response immunoblot (P-p38MAPK, GRP78/BiP); conditions: 10 μM, 16 hours
# Experimental: FIG. 58A is an image of an immunoblot of MDA-MB-468 breast adenocarcinoma cells treated for 16 hours with 10 μM JMS-51-58. FIG. 58B is an image of an immunoblot of T47D breast adenocarcinoma cells treated for 16 hours with 10 μM JMS-51-58. The levels of phospho-Thr 180/Tyr 182 p38MAPK (P-p38MAPK) and GRP78/BiP and were evaluated by immunoblot.
# [4] = tested on: MDA-MB-468, T47D, MDA-MB-231 and PC3 cells; test: Cell proliferation by Alamar blue assay, tumor cell lines; conditions: four drug concentrations, 40-70 hours of treatment
# Experimental: In vitro cell proliferation was quantified by Alamar blue assay. The anti-proliferative effects of four drug concentrations of novel Sigma1 small molecule ligand JMS-51-2nd-58 were quantified after 40-70 hours of treatment. Data are representative of an experiment formed in triplicate for each cell line. FIG. 60A is a graph illustrating cell death in MDA-MB-468 breast adenocarcinoma cell cultures. FIG. 60B is a graph illustrating cell death in T47D breast adenocarcinoma cell cultures. FIG. 60C is a graph illustrating cell death in MDA-MB-231 breast adenocarcinoma cell cultures. FIG. 60D is a graph illustrating cell death in PC3 prostate adenocarcinoma cell cultures.
# [5] = tested on: MDA-MB-468 and T47D breast adenocarcinoma cells; test: Translational arrest immunoblot (P-S6K, P-4E-BP1); conditions: 10 μM, 16 hours
# Experimental: FIG. 57A is an image of an immunoblot illustrating MDA-MB-468 breast adenocarcinoma cells treated for 16 hours with 10 μM of JMS-51-58. FIG. 57B is an image of an immunoblot illustrating T47D breast adenocarcinoma cells treated for 16 hours with 10 μM of JMS-51-58. The levels of phosphothreonine 389-p70S6Kinase (P-S6K) and phosphoserine 65-4E-BP1 (P-4E-BP1) were evaluated by immunoblot. Decreased levels of both phosphoprotein levels indicated diminished protein synthesis.
# [6] = tested on: MDA-MB-468 and MDA-MB-231 breast adenocarcinoma cells; test: Poly-ubiquitylated protein immunoblot, breast adenocarcinoma cells; conditions: 10 μM, 16 hours, MDA-MB-468 and MDA-MB-231
# Experimental: FIG. 34A is an image of an immunoblot of MDA-MB-468 breast adenocarcinoma cells treated with 10 μM Sigma1 antagonist (IPAG) for the indicated times, up to 24 hours. Total cell lysates were resolved by SDS-PAGE and immunoblotted with a poly-ubiquitin antibody P4D1. FIG. 34B is an image of an immunoblot of HepG2 hepatocellular carcinoma cells treated for 20 hours with 10 μM of indicated Sigma1 ligands.
# FIG. 59, comprising FIGS. 59A-59B, illustrates the finding that the novel Sigma1 ligand JMS-51-58 modulated the ubiquitin proteasome system. FIG. 59A is an image of an immunoblot evaluating the levels of poly-ubiquitylated proteins of MDA-MB-468 breast adenocarcinoma treated for 16 hours with 10 μM of JMS-51-58. FIG. 59B is an image of an immunoblot evaluating the levels of poly-ubiquitylated proteins of MDA-MB-231 breast adenocarcinoma cells treated for 16 hours with 10 μM of JMS-51-58. The levels of poly-ubiquitylated proteins were evaluated by immunoblot.
compound,measurement,setting,value
"N=C(NCCCOc1ccc(F)cc1)Nc1ccc(I)cc1 [JMS-51-58, 1-(3-(4-fluorophenoxy)propyl)-3-(4-iodophenyl)guanidine]",potentiation of proteasome inhibitor (bortezomib) mediated cell death,MDA-MB-468 cells,potentiated proteasome inhibitor mediated tumor cell death
same,cell proliferation and rates of cell death,[1]; 3 μM,did not alter cell proliferation or rates of cell death
same,potentiation of bortezomib (BTZ) inhibition of cell proliferation,[1]; sub-lethal dose (3 μM),potentiated the cell proliferation inhibiting effects of bortezomib
same,induction of autophagy,[2],induced autophagy
same,cell adhesion,MDA-MB-231 and PC3 cells,inhibited adhesion of metastatic breast and prostate adenocarcinoma cell lines
same,ER stress response,[3],mediated ER stress response
same,tumor cell proliferation,[4],inhibited tumor cell proliferation
same,translational arrest (decreased P-S6K and P-4E-BP1),[5],mediated translational arrest
same,levels of poly-ubiquitylated proteins,[6],increased ubiquitylated protein levels compared to the DMSO control
